Key:
[1] = xn = mol fraction of the nth substance listed; conditions: 100 kPa, Liquid; for speed of sound: Frequency=3 MHz, Sing-around technique in a fixed-path interferometer; for mass density: Vibrating tube method
[2] = refractive index (Na D-line) (dimensionless); xn = mol fraction of the nth substance listed; conditions: 100 kPa, Liquid, Standard Abbe refractometry

CCCCCCCC[n+]1ccn(C)c1.F[B-](F)(F)F [1-methyl-3-octylimidazolium tetrafluoroborate] + CC(C)(C)O
Conditions | mass density, 298.15 K [kg/m3] | mass density, 308.15 K [kg/m3] | mass density, 318.15 K [kg/m3] | refractive index, 298.15 K | refractive index, 308.15 K | refractive index, 318.15 K | speed of sound, 298.15 K [m/s] | speed of sound, 308.15 K [m/s] | speed of sound, 318.15 K [m/s]
[1], x1 = 0.1017 | 858.69 | 849.64 | 840.32 | – | – | – | 1188.3 | 1157.2 | 1119.1
[1], x1 = 0.1988 | 914.56 | 906 | 897.39 | – | – | – | 1254.2 | 1221.6 | 1190.2
[1], x1 = 0.3011 | 959.49 | 951.41 | 943.34 | – | – | – | 1309.4 | 1275.6 | 1246.5
[1], x1 = 0.4052 | 994.81 | 987.25 | 979.38 | – | – | – | 1351.5 | 1322.2 | 1293.3
[1], x1 = 0.5002 | 1020.68 | 1013.4 | 1005.9 | – | – | – | 1382.5 | 1353.6 | 1324.9
[1], x1 = 0.604 | 1044.05 | 1037.31 | 1029.92 | – | – | – | 1410.1 | 1383.3 | 1354.5
[1], x1 = 0.7024 | 1062.66 | 1056.01 | 1049.1 | – | – | – | 1433.4 | 1409 | 1380.2
[1], x1 = 0.7992 | 1078.39 | 1071.8 | 1064.98 | – | – | – | 1451.3 | 1428.2 | 1402.2
[1], x1 = 0.9014 | 1092.82 | 1086.23 | 1079.48 | – | – | – | 1467.6 | 1443.3 | 1417.2
[1], x1 = 1 | 1105.02 | 1098.32 | 1091.54 | – | – | – | 1485.1 | 1458.5 | 1433.2
[2], x1 = 0.1017 | – | – | – | 1.40022 | 1.39681 | 1.39317 | – | – | –
[2], x1 = 0.1988 | – | – | – | 1.40992 | 1.40684 | 1.40405 | – | – | –
[2], x1 = 0.3011 | – | – | – | 1.41591 | 1.41342 | 1.41058 | – | – | –
[2], x1 = 0.4052 | – | – | – | 1.41962 | 1.41719 | 1.41452 | – | – | –
[2], x1 = 0.5002 | – | – | – | 1.42177 | 1.41911 | 1.41635 | – | – | –
[2], x1 = 0.604 | – | – | – | 1.42411 | 1.42168 | 1.41871 | – | – | –
[2], x1 = 0.7024 | – | – | – | 1.42628 | 1.42348 | 1.42104 | – | – | –
[2], x1 = 0.7992 | – | – | – | 1.42805 | 1.42562 | 1.42272 | – | – | –
[2], x1 = 0.9014 | – | – | – | 1.43025 | 1.42769 | 1.42513 | – | – | –
[2], x1 = 1 | – | – | – | 1.43253 | 1.42984 | 1.42715 | – | – | –

CCCCCCCC[n+]1ccn(C)c1.F[B-](F)(F)F [1-methyl-3-octylimidazolium tetrafluoroborate] + CC(C)CO
Conditions | mass density, 298.15 K [kg/m3] | mass density, 308.15 K [kg/m3] | mass density, 318.15 K [kg/m3] | refractive index, 298.15 K | refractive index, 308.15 K | refractive index, 318.15 K | speed of sound, 298.15 K [m/s] | speed of sound, 308.15 K [m/s] | speed of sound, 318.15 K [m/s]
[1], x1 = 0.1084 | 876.21 | 869.11 | 860.8 | – | – | – | 1230.3 | 1198.3 | 1162.2
[1], x1 = 0.2056 | 927.81 | 920.72 | 912.57 | – | – | – | 1274.1 | 1242.4 | 1206.4
[1], x1 = 0.3002 | 966.65 | 959.59 | 951.64 | – | – | – | 1314.4 | 1282.1 | 1246.2
[1], x1 = 0.4082 | 1001.41 | 994.4 | 986.65 | – | – | – | 1354.1 | 1322.4 | 1287.5
[1], x1 = 0.4989 | 1024.88 | 1017.95 | 1010.44 | – | – | – | 1381.1 | 1351.3 | 1317.8
[1], x1 = 0.6024 | 1047.08 | 1040.26 | 1032.97 | – | – | – | 1407.2 | 1378.2 | 1347.4
[1], x1 = 0.7044 | 1065.38 | 1058.63 | 1051.52 | – | – | – | 1429.1 | 1402.1 | 1373.3
[1], x1 = 0.8062 | 1080.91 | 1074.22 | 1067.26 | – | – | – | 1447.2 | 1421.1 | 1394.3
[1], x1 = 0.8998 | 1093.3 | 1086.63 | 1079.78 | – | – | – | 1463.8 | 1437.1 | 1411.3
[1], x1 = 1 | 1105.02 | 1098.32 | 1091.54 | – | – | – | 1485.1 | 1458.5 | 1433.2
[2], x1 = 0.1084 | – | – | – | 1.40643 | 1.40292 | 1.40008 | – | – | –
[2], x1 = 0.2056 | – | – | – | 1.41442 | 1.41142 | 1.40854 | – | – | –
[2], x1 = 0.3002 | – | – | – | 1.41922 | 1.41636 | 1.41407 | – | – | –
[2], x1 = 0.4082 | – | – | – | 1.42292 | 1.41998 | 1.41801 | – | – | –
[2], x1 = 0.4989 | – | – | – | 1.42482 | 1.42182 | 1.41925 | – | – | –
[2], x1 = 0.6024 | – | – | – | 1.42664 | 1.42372 | 1.42108 | – | – | –
[2], x1 = 0.7044 | – | – | – | 1.42845 | 1.42562 | 1.42306 | – | – | –
[2], x1 = 0.8062 | – | – | – | 1.43004 | 1.42748 | 1.42474 | – | – | –
[2], x1 = 0.8998 | – | – | – | 1.43121 | 1.42866 | 1.42604 | – | – | –
[2], x1 = 1 | – | – | – | 1.43253 | 1.42984 | 1.42715 | – | – | –

CCCCCCCC[n+]1ccn(C)c1.F[B-](F)(F)F [1-methyl-3-octylimidazolium tetrafluoroborate] + CCCCO
Conditions | mass density, 298.15 K [kg/m3] | mass density, 308.15 K [kg/m3] | mass density, 318.15 K [kg/m3] | refractive index, 298.15 K | refractive index, 308.15 K | refractive index, 318.15 K | speed of sound, 298.15 K [m/s] | speed of sound, 308.15 K [m/s] | speed of sound, 318.15 K [m/s]
[1], x1 = 0.1027 | 878.23 | 870.62 | 862.9 | – | – | – | 1273.2 | 1240.8 | 1206.7
[1], x1 = 0.2022 | 929.75 | 922.28 | 914.69 | – | – | – | 1306.5 | 1274.7 | 1241.8
[1], x1 = 0.3056 | 970.63 | 963.3 | 955.89 | – | – | – | 1339.7 | 1308.7 | 1276.3
[1], x1 = 0.3989 | 999.88 | 992.71 | 985.42 | – | – | – | 1366.1 | 1336 | 1304.2
[1], x1 = 0.5062 | 1027.17 | 1020.16 | 1013 | – | – | – | 1392.8 | 1363.2 | 1333.3
[1], x1 = 0.6018 | 1047.22 | 1040.32 | 1033.31 | – | – | – | 1413.7 | 1384.8 | 1356
[1], x1 = 0.6978 | 1064.35 | 1057.54 | 1050.61 | – | – | – | 1431.9 | 1403.8 | 1377
[1], x1 = 0.8014 | 1080.2 | 1073.47 | 1066.62 | – | – | – | 1450.2 | 1423 | 1397.2
[1], x1 = 0.9062 | 1094.06 | 1087.36 | 1080.57 | – | – | – | 1468.3 | 1441.6 | 1416.3
[1], x1 = 1 | 1105.02 | 1098.32 | 1091.54 | – | – | – | 1485.1 | 1458.5 | 1433.2
[2], x1 = 0.1027 | – | – | – | 1.40763 | 1.40492 | 1.40232 | – | – | –
[2], x1 = 0.2022 | – | – | – | 1.41502 | 1.41254 | 1.40964 | – | – | –
[2], x1 = 0.3056 | – | – | – | 1.41903 | 1.41692 | 1.41438 | – | – | –
[2], x1 = 0.3989 | – | – | – | 1.42183 | 1.41956 | 1.41736 | – | – | –
[2], x1 = 0.5062 | – | – | – | 1.42405 | 1.42175 | 1.41965 | – | – | –
[2], x1 = 0.6018 | – | – | – | 1.42594 | 1.42362 | 1.42126 | – | – | –
[2], x1 = 0.6978 | – | – | – | 1.42791 | 1.42542 | 1.42301 | – | – | –
[2], x1 = 0.8014 | – | – | – | 1.42974 | 1.42732 | 1.42444 | – | – | –
[2], x1 = 0.9062 | – | – | – | 1.43151 | 1.42861 | 1.42615 | – | – | –
[2], x1 = 1 | – | – | – | 1.43253 | 1.42984 | 1.42715 | – | – | –
